Data taken from PMC12488629, “Insecticidal activity of monoamide compounds from Humulus scandens against Spodoptera frugiperda” (Frontiers in Plant Science, 2025).
≈ marks a conversion by molar mass, not a printed value.

Assays:
[1] = tested on: Acetylcholinesterase (AchE); experiment: AchE activity in living S. frugiperda after immersion treatment; format: in vivo, Spodoptera frugiperda; conditions: treatment at LC50 and double the LC50, immersion
Experimental: The compounds were prepared in solutions at the LC50 and double the LC50, and 4th-instar S. frugiperda larvae were treated using the immersion method. Ten larvae were treated per concentration, with five replicates, and acetone was used as the solvent control. The Acetylcholinesterase (AchE) activity was measured following the operating procedures of the AchE assay kit (Shenggong Biotech Co., Shanghai, China.).

[2] = tested on: 4th instar S. frugiperda larva; experiment: Dietary toxicity of compounds, artificial feed film method; format: in vivo, Spodoptera frugiperda; conditions: for Insecticidal activity, dietary poisoning (in words): 200 µg/mL; for LC50: Spodoptera frugiperda, feed or water, Gastrotoxic activity (dietary toxicity), 72 hours, 4th instar larvae
Experimental: The dietary toxicity of the compounds against S. frugiperda was determined via the artificial feed film method ([Lu, 2022]). Take 1g of artificial feed and place it in a petri dish, then add 0.1 ml of the liquid medicine (acetone as the solvent and concentration of 200 μg/mL for all compounds) was added to form a uniform film on the surface of the feed. After allowing the feed to dry in a shaded area, one uniformly sized 4th instar S. frugiperda larva was introduced into each dish. Each treatment included 10 Petri dishes, and the experiment was repeated twice. Acetone was used as the solvent control, and a blank control was also used. Mortality was recorded at 24, 48, and 72 hours, and the corrected mortality rate was calculated.
(§1) Mortality(%)=(Mortality of treatment group-Mortality of control group)/(1-Mortality of control group)×100%
The compound concentrations used were 50, 100, 200, 400, and 800 μg/mL. The remaining procedures were the same as those described in section 2.6.1. After 72 hours, the number of dead insects was recorded. The experimental data were processed using Microsoft Excel and SPSS 20.0 software, with the inhibition rates converted into corresponding probability values. A toxicity regression equation was derived, and the LC50 value was calculated.

[3] = tested on: 4th instar S. frugiperda larvae; experiment: Contact toxicity of compounds, immersion method; format: in vivo, Spodoptera frugiperda; conditions: for Insecticidal activity, contact toxicity (in words): 200 µg/mL; for LC50: Spodoptera frugiperda, Poisoning activity (contact toxicity, immersion), 72 hours, 4th instar larvae
Experimental: The contact toxicity of the compounds against S. frugiperda was determined via the immersion method ([Li et al., 2023]). The compounds were prepared in solutions with a concentration of 200 μg/mL using acetone as the solvent. Uniformly sized 4th instar S. frugiperda larvae were selected and immersed in the solutions for 3–4 seconds. Each treatment included 10 Petri dishes, with one larva per dish, and the experiment was repeated three times. Acetone was used as the solvent control, and a blank control was also used. The number of dead insects was recorded at 24, 48, and 72 hours, and the corrected mortality rate was calculated.
as §1
The compound concentrations were prepared as 50, 100, 200, 400, and 800 μg/mL, with the remaining procedures following those in section 2.6.2. The number of dead insects was recorded after 72 hours. The experimental data was processed using Microsoft Excel and SPSS 20.0 software, converting the inhibition rates into corresponding probability values to obtain the toxicity regression equation and calculate the LC50 value.

AchE from S. frugiperda = AchE from S. frugiperda (Spodoptera frugiperda, UniProt A0A9R0CUI4); experiment: Kinetic study of compound inhibition on AchE; format: biochemical; conditions: for Inhibition type on AchE: Lineweaver-Burk double reciprocal plots; for Reversibility of AchE inhibition: reaction rate vs enzyme concentration
Chain of AchE from S. frugiperda (A0A9R0CUI4 18-694): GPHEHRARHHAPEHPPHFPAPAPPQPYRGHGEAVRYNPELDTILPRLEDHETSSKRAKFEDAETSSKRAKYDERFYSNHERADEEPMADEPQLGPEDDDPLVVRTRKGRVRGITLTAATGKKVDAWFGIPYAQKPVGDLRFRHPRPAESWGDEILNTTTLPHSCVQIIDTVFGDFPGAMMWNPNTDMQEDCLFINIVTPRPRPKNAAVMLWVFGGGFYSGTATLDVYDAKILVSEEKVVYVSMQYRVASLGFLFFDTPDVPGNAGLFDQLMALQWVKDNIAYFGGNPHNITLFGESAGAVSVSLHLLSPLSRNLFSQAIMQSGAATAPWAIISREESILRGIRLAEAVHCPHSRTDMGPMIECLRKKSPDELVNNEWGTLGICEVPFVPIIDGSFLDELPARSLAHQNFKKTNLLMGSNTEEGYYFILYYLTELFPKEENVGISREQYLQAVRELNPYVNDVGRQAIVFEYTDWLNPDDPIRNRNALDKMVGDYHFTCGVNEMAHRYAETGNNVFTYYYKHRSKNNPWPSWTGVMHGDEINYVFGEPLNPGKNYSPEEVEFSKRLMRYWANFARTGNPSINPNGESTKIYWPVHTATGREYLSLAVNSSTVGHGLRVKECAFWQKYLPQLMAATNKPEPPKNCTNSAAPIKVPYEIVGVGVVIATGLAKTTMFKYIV
Experimental: Subsequently, 1.5 mM acetylcholine (ACh) (50 µL) and 0.3 mM DTNB (50 µL) were added, and the time was immediately recorded. The OD values were accurately measured after 60 seconds at 412 nm using a microplate reader, and the reaction rate (ΔA/min) was calculated based on the change in OD value per minute.
The OD values were accurately measured after 60 seconds at 412 nm using a microplate reader, and the reaction rate (ΔA/min) was calculated based on the change in OD value per minute. […] The inhibition constant (Ki) of the compound was calculated by plotting the Dixon plot.

SMILES: O=C(/C=C/c1ccc(O)cc1)NCCc1ccc(O)cc1 [Compound 1, N-p-coumaroyl tyramine]
- AchE activity of the test insects [1]: significantly decreased
- Insecticidal activity, dietary poisoning (in words) [2]: good insecticidal activity
- LC50 [2]: 305 µg/mL (≈ 1080 µM)
- Insecticidal activity, contact toxicity (in words) [3]: good insecticidal activity
- LC50 [3]: 93 µg/mL (≈ 328 µM)
- Inhibition type on AchE (AchE from S. frugiperda): competitive inhibitors
- Reversibility of AchE inhibition (AchE from S. frugiperda): reversible inhibitors

SMILES: COc1cc(/C=C/C(=O)NCCc2ccc(O)cc2)ccc1O [Compound 2, N-trans-feruloyl tyramine]
- AchE activity of the test insects [1]: significantly decreased
- Insecticidal activity, dietary poisoning (in words) [2]: good insecticidal activity
- LC50 [2]: 89.9 µg/mL (≈ 287 µM)
- Insecticidal activity, contact toxicity (in words) [3]: good insecticidal activity
- LC50 [3]: 48 µg/mL (≈ 153 µM)
- Inhibition type on AchE (AchE from S. frugiperda): competitive inhibitors
- Reversibility of AchE inhibition (AchE from S. frugiperda): reversible inhibitors
